Experimental data from ChEMBL document CHEMBL1158174, “The antioxidant activity of 2-(4(or 2)-hydroxyl-5-chloride-1,3-benzene-di-sulfanimide)-chitosan” (Eur J Med Chem, 2008).

Experiments:
[1] = Antioxidant activity assessed as superoxide radical scavenging activity at 0.40 mg/mL; type: functional
[2] = Antioxidant activity assessed as hydroxyl radical scavenging activity; type: functional

Q: What does the source list for `O=C1O[C@H]([C@@H](O)CO)C(O)=C1O` [ASCORBIC ACID]?
A: Activity [1]: 33.9%; IC50 [2]: > 711 µg/mL
